The target of one experiment is T1, human LPA3 (Homo sapiens, UniProt Q9UBY5).
T1 construct: The full-length cDNA fragment for human LPA3 was obtained by PCR from the vector; expressed in transfected cells; cDNA from the Missouri S&T cDNA Resource Center
T1 sequence (Q9UBY5 1-353): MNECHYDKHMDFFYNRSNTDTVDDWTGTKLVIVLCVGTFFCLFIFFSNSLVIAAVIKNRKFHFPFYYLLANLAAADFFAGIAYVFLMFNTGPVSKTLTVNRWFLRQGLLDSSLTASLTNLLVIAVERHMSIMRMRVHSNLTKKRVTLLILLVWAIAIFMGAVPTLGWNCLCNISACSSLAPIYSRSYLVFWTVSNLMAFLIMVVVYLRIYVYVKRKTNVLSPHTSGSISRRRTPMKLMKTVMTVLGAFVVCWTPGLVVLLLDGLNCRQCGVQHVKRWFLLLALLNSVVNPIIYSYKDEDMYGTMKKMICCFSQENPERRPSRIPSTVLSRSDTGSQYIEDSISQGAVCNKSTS
As to the kind of experiment: LPA3 calcium flux assay. The format is cell-based. As to conditions: Human LPA3 expressing CHO cells, stimulated with 10 nM LPA; read-out: HLPA3 Ca Flux IC50. Put shortly: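 Stably transfected CHO cells, serum-starved overnight, loaded with Calcium 4 dye 1 h at 37 °C in HBSS/20 mM Hepes with 0.3% fatty-acid-free HSA. Compounds preincubated 30 min at room temperature, then cells stimulated with 10 nM LPA; intracellular Ca2+ read by fluorescence; IC50 from titration curves.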
(Calcium flux is commonly read through the fluorescence of an indicator in the cells.)

For experiment [1], the system named is A2058 human melanoma cells. As to the kind of experiment: LPA1 chemotaxis assay. The format is cell-based. The conditions noted are these: 100 nM LPA, read-out: IC50, inhibition of LPA-driven chemotaxis. As to the method:
Chemotaxis of the A2058 human melanoma cells was measured using the Neuroprobe ChemoTx® System plates (8 μm pore size, 5.7 mm diameter sites). The filter sites were coated with 0.001% fibronectin (Sigma) in 20 mM Hepes, pH 7.4 and allowed to dry. A2058 cells were serum-starved for 24 hours, then harvested with Cell Stripper and resuspended in DMEM containing 0.1% fatty-acid-free bovine serum albumin (BSA) to a concentration of 1×10^6/ml. Cells were mixed with an equal volume of test compound (2×) in DMEM containing 0.1% fatty-acid-free BSA and incubated at 37° C. for 15 minutes. LPA (100 nM in DMEM containing 0.1% fatty-acid-free BSA) or vehicle was added to each well of the lower chamber and 50 μl of the cell suspension/test compound mix was applied to the upper portion of the ChemoTx plate. Plates were incubated at 37° C. for three hours and then the cells removed from the upper portion by rinsing with PBS and scraping. The filter was dried then stained with HEMA 3 Staining System (Fisher Scientific). The absorbance of the filter was read at 590 nm and IC50s were determined using Symyx Assay Explorer.

For another experiment, the system named is Female C57BL/6 mice. Description: Mouse unilateral ureteral obstruction kidney fibrosis model. The format is in vivo. How it is done:
Female C57BL/6 mice (Harlan, 20-25 g) housed 4/cage will be given free access to food and water and allowed to acclimate for at least 7 days prior to test initiation. After the habituation phase, mice undergo unilateral ureteral obstruction (UUO) surgery or sham to left kidney. Briefly, a longitudinal, upper left incision is performed to expose the left kidney. The renal artery is located and 6/0 silk thread is passed between the artery and the ureter. The thread is looped around the ureter and knotted 3 times insuring full ligation of ureter. The kidney is returned to abdomen, the abdominal muscle is sutured and the skin is stapled closed. Mice are returned to their cages and monitored daily for the duration of the experiment. Test compound or vehicle is delivered po, ip or sc daily. The route and frequency of dosing is based on previously determined pharmacokinetic properties. All animals are sacrificed using inhaled isoflurane 4, 8 or 14 days after UUO surgery. […] Kidney tissue homogenates are analyzed for collagen levels using Sircol (Biocolor Ltd, UK). Fixed kidney tissue is also stained using hematoxylin and eosin (H&E) and trichrome and kidney fibrosis is determined by quantitative, computer-assisted densitometry of collagen in […] tissue sections using light microscopy. […] The resulting data are plotted using Graphpad prism and statistical differences between groups determined.

Consider `Cc1noc(-c2ccc(-c3ccc(CC(=O)O)cc3)cc2)c1NC(=O)O[C@H](C)c1ccccc1Cl` [Compound 1-88, (4′-{4-[(R)-1-(2-Chloro-phenyl)-ethoxycarbonylamino]-3-methyl-isoxazol-5-yl}-biphenyl-4-yl)-acetic acid], for which the concentration for half-maximal inhibition (IC50) (as a rule, the concentration that gives 50% inhibition) was 1 to 50 µM on human LPA3 and less than 0.3 µM in experiment [1]. Also, the “reduction of kidney fibrosis as compared to the untreated group” value in the experiment on Female C57BL/6 mice is recorded as “at least 20%”.

For `Cc1noc(-c2ccc(-c3ccc(CC(=O)O)cc3)cc2)c1NC(=O)O[C@H](C)c1ccccc1` [Compound 1-115], the IC50 on human LPA3 was 1 to 50 µM; in experiment [1], less than 0.3 µM. For the same molecule, the “reduction of kidney fibrosis as compared to the untreated group” value with Female C57BL/6 mice was 55%.

(Values after US20110301142A1, “ANTAGONISTS OF LYSOPHOSPHATIDIC ACID RECEPTORS” (priority 2008, published 2011).)
